The values below come from patent US20110244028A1, “METHOD OF SOLUBILIZING BIOLOGICALLY ACTIVE COMPOUNDS” (priority 2008, published 2011).

Like-named read-outs stand apart in the source and are kept apart here.

For data set [1] the following is noted: for precipitation in liposomal dispersion after neutralization: 100 mg phospholipid/ml liposomes ca 30 nm in isotonic glycerol. How it is done: Visual assessment may be supported by comparing the transmission optical density (OD) measurements before and after the compound is added when the system is at equilibrium. […] The figures should be at least 80% of the initial transmission value of the blank dispersion which is used as a control. […] When the liposome dispersions are not sufficiently transparent the loading process can nevertheless be followed by e.g. using microscopy techniques to detect unassociated drug particles.
A first aqueous suspension comprising SUVs is prepared in a micro-fiuidizer. The dispersion contains 100 mg phospholipid/ml in isotonic glycerol solution.

Data set [2] can be described thus: control experiment without phospholipid: isotonic glycerol solution neutralized to pH 7.0. The format is physicochemical. How it is done: In a control experiment 25 μl of the 100 mg phenytoin/ml solution in 1 M NaOH is added to 1.0 ml of isotonic glycerol solution to make up 2500 μg phenytoin/ml.
For data set [3] the following is noted: cited from earlier work.
For data set [4] the following is noted: cited from earlier work. The source holds these as a separate data set.
The conditions of data set [5]: cited from earlier work. This is another data set of the same source.
[6] abbreviates: 2.5 mg drug/ml in isotonic glycerol solution, neutralized to pH 7.0.
The mark [7] stands for this setting: 5 mg drug/ml, neutralized to pH 7.0 with NaOH.
[8] abbreviates: 5 mg drug/ml in isotonic glycerol solution, neutralized to pH 7.0 with NaOH.

Turning to `O=C1NC(=O)C(c2ccccc2)(c2ccccc2)N1` [phenytoin], in data set [1] (pH 7), the “amount solubilized in the liposomes” value was determined as 2500 µg. The “precipitation in control without lipid after neutralization” value (shortened to “precipitation in control without lipid”) in data set [2] (setting [6]) is recorded as “precipitates”. Moreover, the “Log P oil/water” value in data set [3] was 2.3. For the same molecule, the “solubility in water at pH 7” value is recorded as 3.7 μg/ml in data set [4] and 37 μg/ml in data set [4] (listed as Phenytoin).
A word on the solubility: it is the dissolved amount per volume that the medium holds. As to `CC(=O)N1CCN(c2ccc(OCC3COC(Cn4ccnc4)(c4ccc(Cl)cc4Cl)O3)cc2)CC1` (centres unmarked) [ketoconazole], the “precipitation in liposomal dispersion after neutralization” value (“precipitation in liposomal dispersion” below) in data set [1] (setting [7]) is given as “no precipitated ketoconazole can be seen”. For the same molecule, the “precipitation in control without lipid” value in data set [2] (setting [8]) was “precipitates”. Besides, in data set [4], the “solubility at pH 1.2” value was 2729 μg/ml and the “solubility in water at pH 7” value is reported as 2 μg/ml.
The term pKa denotes the negative logarithm of the acid dissociation constant. `OCCN(CCO)c1nc(N2CCCCC2)c2nc(N(CCO)CCO)nc(N3CCCCC3)c2n1` [dipyridamole]: the “precipitation in liposomal dispersion” value in data set [1] (2.5 mg drug/ml, neutralized to pH 7.0) is reported as “No precipitated dipyridamole is noticed”. In addition, the “precipitation in control without lipid” value in data set [2] (setting [6]) was “precipitates”. Further, the pKa in data set [5] was 6.4. In data set [4], the “solubility at pH 1.2” value was 1753 μg/ml and the “solubility in water at pH 7” value is given as 5 μg/ml.
As to `O=C1NC(=O)C(c2ccccc2)(c2ccccc2)N1` [Phenytoin sodium], the “solubility at pH 10-pH13” value in data set [4] (pH 10-pH13, according to Martindale) is “freely soluble”.
As for `CN1C(=O)CN=C(c2ccccc2)c2cc(Cl)ccc21` [diazepam], the “precipitation in liposomal dispersion” value in data set [1] (setting [7]) is on record as “remain dear without diazepam precipitates”. In addition, the “precipitation in control without lipid” value in data set [2] (setting [8]) was “precipitates out”.
